# According to patent US20240423976A1, “COMPOSITIONS AND METHODS FOR TREATING THERAPEUTIC-INDUCED TOXICITIES” (THE BOARD OF REGENTS OF THE UNIVERSITY OF OKLAHOMA, priority 2023, published 2024):
# Key:
# [1] = tested on: caspase 3/7; assay: Caspase 3/7 activation in CisPt-exposed cells (FLICA, fluorescence microscopy), Example 1; type: cell-based; conditions: CisPt-exposed HEI-OC1 cells
# Method: Novel dual stimuli-responsive nanoformulations have been investigated for the synthesis of ROS-responsive polymers, and thermo-responsive polymers and their characterization using ^1H NMR. Drug loaded NCs comprising BUC and/or DLT in micelles of PPS-mPEG2000 were prepared by nanoprecipitation methods. The BUC-PPS-mPEG2000-NCs and DLT-PPS-mPEG2000-NCs were characterized using DLS and NTA and TEM images. The EE % and DL % of NCs were determined using HPLC and Ellman's assays. The long-term storage stability over two months was checked by using DLS for size and PDI. In vitro assessments were performed on the HEIOC1 cell lines for MTT and Live-dead cell assays for biocompatibility and cellular uptake analysis, respectively. The cytoprotective effect of BUC-NCs, DLT-NCs and BUC/DLT-PPS-mPEG2000-NCs, were studied after treating with various regimens and different concentration with and without cisplatin. The ROS-Scavenging effect nanoformulation was confirmed by the DCFH-DA assay, and FLICA assays. The final formulation, named NanoSensoGel, comprising a combination of a thermo-responsive P407 hydrogel, and the ROS-responsive BUC/DLT loaded PPS-mPEG2000-NCs, was characterized for its bio-responsiveness, a novel method was established to perform the in vitro drug release, and release kinetics mechanism were studied for dual drug release.
# [2] = tested on: HEI-OC1 cells; assay: Cellular internalization study of C6-cHy-NPs with pathway inhibitors and over time; type: cell-based; conditions: 40 μg/mL inhibitor, 1 h pre-incubation
# Method: First, blank cHy-NPs (cHy-NPs, without FL or HK encapsulation) were prepared as described below. In, 1 mL colloidal solution of cHy-NPs, 1 mg coumarin-6 (C-6) was added and the mixture was stirred at 200 rpm overnight at room temperature. The NP solution was then centrifuged at 2000 rpm for 5 min to remove unloaded C-6. The supernatant containing C-6-cHy-NPs was transferred to a fresh microcentrifuge tube. The HEI-OC1 (House Ear Institute-Organ of Corti 1) cells were seeded in 96 well plate (10000 cells per well) overnight. After washing with fresh growth media, the media (100 μL) containing 40 μg/mL CPZ, MβCD, GNT, or AML was added to separate columns (2 columns kept untreated as a control group). After 1 h of incubation at 33° C. (5% CO2), 2.5 μL of C6-cHy-NPs (10× diluted with media) were added to each well. The plate was incubated for 4 h and the cells were washed using PBS. After adding fresh PBS, the fluorescence intensity of each well was recorded using a multi-well plate fluorescence spectrophotometer (Synergy 2, BioTek, USA) at λex/em 460/505. In another experiment to confirm the effect of various inhibitors, the cells (20000 per well) were seeded overnight, and incubated with different concentrations (0, 2.5, 5, 10, 20, 30, 40, 50, and 75 μg/mL) of MβCD, GNT, or AML. After treatment, incubation, and washing, the fluorescence intensity of each well was recorded as described above. Furthermore, to study the time of cellular internalization the cells (20000 per well) were treated with C-6-cHy-NPs (5 μL, 10× diluted), and the fluorescence of the samples was recorded after washing at different time intervals (0.25, 0.5, 1, 2, 3, 4, 5, 6, 8, 10, 24, and 48 h) of incubation. For microscopy analysis, the cells were seeded in a 6 well plate (1×10^5 cells/well) and incubated overnight. The next day, cells were washed and in each well media containing C-6-cHy-NPs was added. At different time intervals (0.5, 1, 2, 3, 4, and 5 h), the cells of a well were washed using PBS and analyzed under the fluorescence microscope using a 20× lens (Revolve, Discover Echo Inc., San Diego, CA, USA) at λex 460 nm. Counterstain Hoechst 33342 (1 μg/mL, 10 min incubation in the dark, λex 350 nm) was used.
# [3] = tested on: HEI-OC1 cells; assay: Intracellular ROS generation (DCFH2-DA); type: cell-based
# Method: (§1) The HEI-OC1 Cells (10000 cells/well in 96-well plates) were treated with various treatment groups as described above in the cell cytotoxicity study section. The endpoints for ROS generation, apoptosis, and necrosis studies were set up at 24, 36, and 48 h, respectively. For ROS generation study, the cells were washed two times with fresh media and then culture media containing DCFH2DA reagent (10 μM) was added to each well. After 30 min incubation in dark at 33° C. (5% CO2) the cells were washed with PBS three times. Fresh PBS (100 μL) was added and the fluorescence was recorded at λex/em 480/530 nm using a multi-well plate fluorescence spectrophotometer (Synergy 2, BioTek, USA). […] After washing, the fluorescence was recorded at λex/em 480/530 nm using a multi-well plate fluorescence spectrophotometer (Synergy 2, BioTek, USA). […] After 15 min incubation in dark, the fluorescence was recorded at λex/em 530/615 nm using a multi-well plate fluorescence spectrophotometer (Synergy 2, BioTek, USA). The fluorescence microscopy analysis of ROS generation, apoptosis, and necrosis experiments was performed. […] The cells were observed under the fluorescence microscope using a 20× lens at the respective dye fluorescence filter as described above. For HOECHST-33342 λex/em 350/460 nm fluorescence filter was used.
# [4] = tested on: HEI-OC1 cells; assay: MitoSOX mitochondrial superoxide assay; type: cell-based; conditions: MitoSOX fluorescence
# [5] = tested on: HEI-OC1 cells; assay: PI staining necrosis / cell death assay; type: cell-based; conditions: 48 h; pre-treatment then CisPt; CisPt row is CisPt only
# Method: as §1
# [6] = tested on: caspase 3/7; assay: Caspase 3/7 apoptosis assay; type: cell-based; conditions: HEI-OC1
# Method: as §1
# [7] = tested on: neuromast hair cells; assay: Otoprotection studies on zebrafish (cisplatin ototoxicity); type: in vivo; conditions: 5-6 dpf fish; 33, 17, 2 mM alone or 17+17, 8.5+8.5, 3+3 mM; cisplatin 400 mM, 6 hours
# Method: Fish were maintained at 28.5° C. in E3 media with a 14-hour light/10-hour dark cycle. Otoprotection studies were performed in 5-6 dpf wild type (TuAB) fish as previously described [2]. Briefly, fish were pre-incubated for one hour in E3 media containing FL, HK or FL+HK and then co-incubated for 6 hours with the corresponding cytoprotective molecules and clinical cisplatin 400 mM. Concentrations were as follow: FL or HK=33 mM, 17 mM and 2 mM; FL+HK=17+17 mM, 8.5+8.5 mM and 3+3 mM. Fish were also incubated with empty NPs as control. After the treatment, fish were transferred to fresh E3 media for one hour to recover, followed by fixation (4% PFA) and processing for confocal imaging. For the detection of neuromast hair cells, fish were immunostained for the hair cell marker, otoferlin (HCS-1, DSHB, 1:200 dilution). Hair cells were manually counted using a Zeiss AxioSkop 2 fluorescence microscope. The neuromasts inspected were part of the cranial system and included the otic, middle, and opercular neuromasts. Ten to twelve fish were used per treatment. Confocal imaging was performed using a Zeiss LSM 700 confocal laser scanning image system. Images were captured at room temperature with automatically set sectioning and processed with ZEN black edition software. Z-stacks are presented as flat Z-projections.
# [8] = In vitro drug release kinetics from thermoresponsive hydrogel (Korsmeyer-Peppas model); type: physicochemical; conditions: PBS pH 7.4; for release from the hydrogel: in 48 h at 25° C.; for maximum release from the hydrogel: in one month at 37° C.
# Method: Two 24 well plates were taken equipped with 6.5 mm inserts (Transwell®, Costar, Corning, NY, USA) having 8 µm pores polycarbonate support membrane six in each plate. The developed hydrogel formulations containing FL-cHy-NPs and HK-cHy-NPs were filled in the inserts (n=3, in each plate and each formulation). One plate was placed at 37° C. while the other one was kept at 25° C. After 30 min, the receiver media (1 mL, PBS pH 7.4) was filled in each well-containing insert. Other wells were filled with deionized water to maintain humidity in the plate. […] The drug content (FL and HK) was extracted using DCM; solvent-solvent extraction. After evaporating the DCM, the extracted FL and HK content was dissolved in methanol (100 μL, 100% LC-MS grade). The drug quantification of FL and HK in each sample was done using HPLC using the same procedure described above. The release kinetics of FL and HK from both hydrogels were calculated using the Korsmeyer-Peppas model (eq 7). where, Mt is the mass of the drug released at time t; […]
molecule,measurement,setting,value
"CC(C)(S)C(=O)N[C@@H](CS)C(=O)O [BUC, bucillamine]",inhibition of caspase 3/7 activation,[1],highly responsible for the inhibition of the caspase 3/7 activation
methyl-β-cyclodextrin [MβCD],effect of pathway inhibitor pretreatment on cellular internalization of C6-cHy-NPs,[2],no significant change in the cellular internalization
"O=S([O-])([O-])=S.[Na+].[Na+] [STS, Sodium thiosulphate]",ROS generation compared to CisPt-only treated cells,[3]; 24 h post CisPt addition,did not show a significant ROS generation
same,ratio of normalized intensities of total cells and DCF-stained cells,"[3]; fluorescence microscopy, pre-treatment then CisPt, CisPt row is CisPt only",1.53±0.23
same,mitochondrial superoxide compared to CisPt-only treated cells,[4],significantly reduced mitochondrial superoxide
same,ratio of normalized intensities of total cells and PI-stained cells,[5],2.03±0.02
same,caspase 3/7 activation compared to CisPt only treated cells,[6],significantly reduced signals of caspase 3/7 activation
"C=CCc1ccc(O)c(-c2ccc(O)c(CC=C)c2)c1 [HK, Honokiol]",protection of neuromast hair cells against cisplatin-induced ototoxicity,[7],prevented hair cell loss
same,release from the hydrogel,[8],~60%
same,maximum release from the hydrogel,[8],~50%
"O=c1c(-c2ccc(O)cc2)coc2cc(O)cc(O)c12 [GNT, Genistein]",effect of pathway inhibitor pretreatment on cellular internalization of C6-cHy-NPs,[2],no significant change in the cellular internalization
"Fc1ccc(C(c2ccc(F)cc2)N2CCN(C/C=C/c3ccccc3)CC2)cc1 [FL, Flunarizine]",protection of neuromast hair cells against cisplatin-induced ototoxicity,[7],prevented hair cell loss
same,release from the hydrogel,[8],~60%
same,maximum release from the hydrogel,[8],~50%
"N=C(N)NC(=O)c1nc(Cl)c(N)nc1N [AML, Amiloride]",effect of pathway inhibitor pretreatment on cellular internalization of C6-cHy-NPs,[2],no significant change in the cellular internalization
"CN(C)CCCN1c2ccccc2Sc2ccc(Cl)cc21 [CPZ, Chlorpromazine]",effect of pathway inhibitor pretreatment on cellular internalization of C6-cHy-NPs,[2],significantly reduced cellular internalization
